The structures appear in SMILES notation. Where two headings read alike, the source gives them in different places.

We go through 9 compounds from US20230382940A1, “ANTIVIRAL COMPOUNDS AND METHODS OF MAKING AND USING THE SAME” (Gilead Sciences, Inc., priority 2022, published 2023).

Data set [1] concerns Human Rhinovirus 1B (HRV1B). Briefly: H1-HeLa HRV-CTG 384-well assay, HRV1B, Example X. The class given is cell-based. The following applies: Rhinovirus A, 96 h, read-out: EC50 H1-HeLa_HRV 1B_HRV-CTG 384-well Assay (per Ex. X). From the text: Example X: H1-HeLa HRV-CTG 384-Well Assay
H1-Hela cell line (ATCC, Manassas, VA, Cat #CRL-1958) was maintained in Dulbecco's […] (DMEM) (Corning, New York, NY, Cat #15-018CM) supplemented with 10% fetal bovine serum (FBS) (Hyclone, Logan, UT, Cat #SH30071-03), and 1× Penicillin-Streptomycin-L-Glutamine (Corning, New York, NY, Cat #30-009-CI). Cells were passaged 2 times per week to maintain sub-confluent densities and were used for experiments at passage 5-30. The Human Rhinovirus 1B (HRV1B) (ATCC, Manassas, VA, Cat #VR-1645), Human Rhinovirus 14 (HRV14) (ATCC, Manassas, VA, Cat #VR-284), and Human Rhinovirus 16 (HRV16) (ATCC, Manassas, VA, Cat #BR-283) was obtained through ATCC. Viral infection was monitored by determining viability of H1-HeLa cells as described below.
Test molecules are prepared in 100% DMSO in 384-well polypropylene plates (Greiner, Monroe, NC, Cat #784201) with 8 compounds per plate in grouped replicates of 4 at 10 serially diluted concentrations (1:3). The serially diluted compounds were transferred to low dead volume Echo plates (Labcyte, Sunnyvale, CA, Cat #LP-0200).
The test compounds were spotted to 384-well assay plates (Greiner, Monroe, NC, Cat #781091) at 200 nL per well using an Echo acoustic dispenser (Labcyte, Sunnyvale, CA). H1-HeLa cells were harvested and suspended in DMEM (supplemented with 2% FBS and 1× Penicillin-Streptomycin-L-Glutamine) and seeded to the pre-spotted assay plates at 5,000 cells per well in 30 μL. HRV1B, HRV14, and HRV16 was diluted in DMEM (supplemented with 2% FBS and 1× Penicillin-Streptomycin-L-Glutamine) at 97.1 million Infectious Units (IU) per mL, 151 million IU per mL and 221 million IU per mL respectively. 10 μL of virus per well was added to the assay plates containing cells and compounds, for an MOI of 0.5, 1.0, and 0.25 respectively. The assay plates were incubated for 4 days at 37° C. and 5% CO2. At the end of incubation, Celltiter-Glo (Promega, Madison, WI, Cat #G7573) was prepared. The assay plates and Celltiter-Glo reagent were equilibrated to room temperature for at least 15 minutes. 40 μL per well of Celltiter-Glo reagent was added and the plates were incubated at room temperature for 15 minutes before reading the luminescence signal on an EnVision multimode plate reader (Perkin Elmer, Waltham, MA). Rupintrivir was used as positive control and DMSO was used as negative control. Values were normalized to the positive and negative controls (as 0% and 100% replication, respectively) and data was fitted using non-linear regression analysis by Gilead's dose response tool. The EC50 value for each compound was defined as the concentration reducing viral replication by 50%.

A short description of data set [2]: GI S9 stability, dog, Example Y. The following applies: dog intestinal S9, 1.0 mg/mL protein, 2 μM compound, pH 7.4; for half-life at 2 μM: pooled intestinal S9 fractions, read-out: GIS9 DOG T½ (per Ex. Y). Format: in vitro ADME. The procedure:
(§1) Example Y: GI S9 Stability Data
(§2) Stock solutions of test compounds in dimethyl sulfoxide (DMSO) having a final concentration of 10 mM were prepared and used in all experiments. Sekisui XenoTech (Kansas City, KS) provided pooled intestinal S9 fractions. All other chemicals were purchased from Sigma-Aldrich (St. Louis, MO) or VWR (West Chester, PA). Internal Standard/Quench (IS/Q) used to stop reactions was 100 nM labetalol in (by volume) methanol (10%) and acetonitrile (90%).
(§3) Stability in Intestinal S9 Fractions: Duplicate aliquots of test compound or positive control substrate were added to S9 stock diluted with phosphate buffered saline (137 mM NaCl, 2.7 mM KCl, 10 mM phosphate buffer), pH 7.4, to obtain a protein concentration of 1.0 mg/mL. The metabolic reactions were initiated by the addition of the substrates to the S9 reaction mixture to a final concentration of 2 μM. At 0, 10, 20, 30, 60 and 120 min, 25 μL aliquots of the reaction mixture were transferred to plates containing 225 μl of IS/Q solution. After quenching, the plates were centrifuged at 3000×g for 30 minutes. 150 μL aliquots of each supernatant were dried down then reconstituted with 300 μL water. Aliquots (10 μL) of the prepared samples were analyzed on a Thermo Q-Exactive mass spectrometer as described below.
(§4) Liquid Chromatography—Mass Spectrometry: Quantification of test compounds and control substrate was performed by analyte/internal standard peak area ratio (PAR) values measured on a Thermo Q-Exactive mass spectrometer coupled to a Dionex UltiMate 3000 HPLC with a Leap Technologies HTC PAL autosampler. The column used for analysis was a Waters Acquity BEH C18 (1.7 μm particle size, 2.1×50 mm). Mobile phase A consisted of 0.1% (v/v) formic acid in water. Mobile phase B consisted of 0.1% (v/v) formic acid in acetonitrile. Elution of analytes was achieved by a series of linear gradients varying the proportions of A and B. The mass spectrometer was calibrated on a weekly basis and mass tolerance of 5 ppm was used.
(§5) Metabolic stabilities in S9 fractions were determined by measuring the rates of disappearance of test compound and positive control substrate.
(§6) Data (% of substrate remaining) were plotted on a semi-log scale and fitted using an exponential decline model:
(§7) Ct=C0×e^−ln2/T1/2×t • Where Ct—% of substrate remaining at time=t; C0—% of substrate remaining at time=0; t—time; T1/2—half-life. • The Half-life (T1/2) is determined by the following equation: […]
(§8) Assuming a first-order reaction, the slope (k) is extrapolated from the aforementioned plotted data.

A short description of data set [3]: GI S9 stability, cyno, Example Y. The following applies: cynomolgus monkey, pooled intestinal S9 fractions; cyno intestinal S9, 1.0 mg/mL protein, 2 μM compound, pH 7.4; read-out: GIS9 Cyno T½ (per Ex. Y). The class given is in vitro ADME. The procedure:
as §1, §2, §3, §4, §5, §6, §7, §8

Where [4] appears, read: H1-HeLa cells, HRV1B MOI 0.5, 4 days, Celltiter-Glo.

What is called EC50 is the concentration that produces a half-maximal response. As for `CC[C@@H](C)OC(=O)OC[C@@]1(C#N)O[C@@H](c2ccc3c(N)ncnn23)[C@H](O)[C@@H]1O` [Compound 10, ((2R,3S,4R,5S)-5-(4-aminopyrrolo[2,1-f][1,2,4]triazin-7-yl)-2-cyano-3,4-dihydroxytetrahydrofuran-2-yl)methyl ((R)-sec-butyl) carbonate], the concentration giving a half-maximal response (EC50) in data set [1] (setting [4]) came to 18.1 µM. In addition, the “GIS9 DOG T½ (per Ex. Y)” value in data set [2] was 13.2 h. Further, the half-life at 2 μM in data set [3] amounted to 0.15 h.
As for `CCCOC(=O)OC[C@@]1(C#N)O[C@@H](c2ccc3c(N)ncnn23)[C@H](O)[C@@H]1O` [Compound 9, ((2R,3S,4R,5S)-5-(4-aminopyrrolo[2,1-f][1,2,4]triazin-7-yl)-2-cyano-3,4-dihydroxytetrahydrofuran-2-yl)methyl propyl carbonate], in data set [1] (setting [4]), the concentration giving a half-maximal response (EC50) worked out at 7.57 µM. The half-life at 2 μM in data set [2] worked out at 2.6 h; in data set [3], 0.317 h.
With `CC(C)(C)OC(=O)OC[C@@]1(C#N)O[C@@H](c2ccc3c(N)ncnn23)[C@H](O)[C@@H]1O` [Compound 13, ((2R,3S,4R,5S)-5-(4-aminopyrrolo[2,1-f][1,2,4]triazin-7-yl)-2-cyano-3,4-dihydroxytetrahydrofuran-2-yl)methyl tert-butyl carbonate], in data set [1] (HRV1B, H1-HeLa), the concentration giving a half-maximal response (EC50) was 3.19 µM. The half-life at 2 μM in data set [2] amounted to 1.6 h; in data set [3], 1.2 h.
In the case of `COC(=O)OC[C@@]1(C#N)O[C@@H](c2ccc3c(N)ncnn23)[C@H](O)[C@@H]1O` [Compound 6, ((2R,3S,4R,5S)-5-(4-aminopyrrolo[2,1-f][1,2,4]triazin-7-yl)-2-cyano-3,4-dihydroxytetrahydrofuran-2-yl)methyl methyl carbonate], the half-maximal effective concentration (EC50) in data set [1] (setting [4]) was found to be 8.91 µM. Further, the “GIS9 DOG T½ (per Ex. Y)” value in data set [2] is 13.2 h. Further, the half-life at 2 μM in data set [3] was found to be 0.633 h.
On the same counts, the results for `N#C[C@]1(COC(=O)O[C@@H]2CCOC2)O[C@@H](c2ccc3c(N)ncnn23)[C@H](O)[C@@H]1O` [Compound 24, ((2R,3S,4R,5S)-5-(4-aminopyrrolo[2,1-f][1,2,4]triazin-7-yl)-2-cyano-3,4-dihydroxytetrahydrofuran-2-yl)methyl ((R)-tetrahydrofuran-3-yl) carbonate] are 6.75 µM, 13.2 h and 2.45 h.
Take `CC(C)COC(=O)OC[C@@]1(C#N)O[C@@H](c2ccc3c(N)ncnn23)[C@H](O)[C@@H]1O` [Compound 8, ((2R,3S,4R,5S)-5-(4-aminopyrrolo[2,1-f][1,2,4]triazin-7-yl)-2-cyano-3,4-dihydroxytetrahydrofuran-2-yl)methyl isobutyl carbonate]: the half-maximal effective concentration (EC50) in data set [1] (setting [4]) was determined as 5.16 µM. Also, the results for the half-life at 2 μM in data set [2] and in data set [3] were 5.18 h and 0.133 h, respectively.
As to `N#C[C@]1(COC(=O)OC2CCCC2)O[C@@H](c2ccc3c(N)ncnn23)[C@H](O)[C@@H]1O` [Compound 1, ((2R,3S,4R,5S)-5-(4-aminopyrrolo[2,1-f][1,2,4]triazin-7-yl)-2-cyano-3,4-dihydroxytetrahydrofuran-2-yl)methyl cyclopentyl carbonate], the concentration giving a half-maximal response (EC50) in data set [1] (setting [4]) was found to be 8.65 µM. Moreover, the values for the half-life at 2 μM in data set [2] and in data set [3] were 4.27 h and 0.183 h, respectively.
On to `N#C[C@]1(COC(=O)O[C@H]2CCOC2)O[C@@H](c2ccc3c(N)ncnn23)[C@H](O)[C@@H]1O` [Compound 33, ((2R,3S,4R,5S)-5-(4-aminopyrrolo[2,1-f][1,2,4]triazin-7-yl)-2-cyano-3,4-dihydroxytetrahydrofuran-2-yl)methyl ((S)-tetrahydrofuran-3-yl) carbonate], for which the EC50 in data set [1] (setting [4]) is 8.7 µM. Besides, in data set [2], the “GIS9 DOG T½ (per Ex. Y)” value was 13.2 h. Moreover, in data set [3], the half-life at 2 μM stood at 2.72 h.
With `N#C[C@]1(COC(=O)OC2CCOCC2)O[C@@H](c2ccc3c(N)ncnn23)[C@H](O)[C@@H]1O` [Compound 12, ((2R,3S,4R,5S)-5-(4-aminopyrrolo[2,1-f][1,2,4]triazin-7-yl)-2-cyano-3,4-dihydroxytetrahydrofuran-2-yl)methyl (tetrahydro-2H-pyran-4-yl) carbonate], the EC50 in data set [1] (setting [4]) is 10 µM. Moreover, the half-life at 2 μM in data set [3] worked out at 4.57 h.
